{"source": "patent US8841285B2", "about": "“Potent immunosuppressive agents, derivatives and uses” (priority 2002, dated 2014)", "key": {"eIF4A-eIF4B": {"biological_target": "T1, eIF4A-eIF4B (Homo sapiens, UniProt P60842)", "T1 construct": "The entire ORF of human eIF4AI was ligated in-frame into the BamHI and HindIII sites of the pET-28a expression vector; made in house; host or cells: bait from E. coli BL21(DE3); eIF4B endogenous in HeLa lysate", "T1 sequence (P60842 whole entry)": "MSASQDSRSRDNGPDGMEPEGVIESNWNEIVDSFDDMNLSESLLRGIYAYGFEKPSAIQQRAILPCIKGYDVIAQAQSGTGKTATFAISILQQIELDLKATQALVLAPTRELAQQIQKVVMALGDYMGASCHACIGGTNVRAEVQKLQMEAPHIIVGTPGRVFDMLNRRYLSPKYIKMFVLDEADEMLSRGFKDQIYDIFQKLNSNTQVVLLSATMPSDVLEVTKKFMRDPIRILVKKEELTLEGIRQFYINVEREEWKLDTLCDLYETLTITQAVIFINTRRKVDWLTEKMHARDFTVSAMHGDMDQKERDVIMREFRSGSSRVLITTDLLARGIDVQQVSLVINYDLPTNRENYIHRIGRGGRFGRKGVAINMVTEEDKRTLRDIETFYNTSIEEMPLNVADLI", "T1 sequence (P23588 whole entry partner)": "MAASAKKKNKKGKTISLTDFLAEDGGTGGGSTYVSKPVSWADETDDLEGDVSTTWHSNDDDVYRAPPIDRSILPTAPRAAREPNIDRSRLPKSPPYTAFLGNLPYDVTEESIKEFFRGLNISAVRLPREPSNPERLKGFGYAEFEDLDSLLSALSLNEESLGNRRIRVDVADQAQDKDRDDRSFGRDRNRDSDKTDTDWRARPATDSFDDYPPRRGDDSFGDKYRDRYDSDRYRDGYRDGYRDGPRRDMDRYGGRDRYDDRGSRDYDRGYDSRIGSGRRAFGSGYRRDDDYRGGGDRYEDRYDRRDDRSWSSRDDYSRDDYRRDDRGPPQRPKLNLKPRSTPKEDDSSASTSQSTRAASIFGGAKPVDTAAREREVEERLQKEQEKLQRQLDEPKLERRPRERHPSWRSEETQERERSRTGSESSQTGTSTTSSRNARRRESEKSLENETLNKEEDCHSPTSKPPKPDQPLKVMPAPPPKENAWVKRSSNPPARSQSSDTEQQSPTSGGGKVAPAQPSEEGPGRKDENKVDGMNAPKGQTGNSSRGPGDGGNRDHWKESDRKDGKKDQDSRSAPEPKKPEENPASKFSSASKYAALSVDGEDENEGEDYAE", "test": "6XHis-eIF4AI pulldown, eIF4A-eIF4B interaction", "type": "binding", "settings": "HeLa lysate; PatA at 100 μM", "protocol": "6XHis-eIF4AI pulldown, Co-immunoprecipitation, and m^7GTP-Sepharose pulldown. For 6XHis-eIF4AI pulldowns, HeLa lysates were prepared as described above. Equal aliquots (200 μl) of lysate were incubated with PatA analogs or DMSO and 8.5 μg of 6XHis-eIF4AI overnight at 4° C., followed by addition of Ni-NTA resin for 1 h, then resin was washed with 3 ml buffer, and boiled in SDS-PAGE loading buffer followed by SDS-PAGE and immunoblotting with indicated antibodies. For co-immunoprecipitation, 293T cells with vector control or pcDNA3-Flag-4B lysates were prepared by pipetting in: 20 mM HEPES, pH 7.4, 100 mM KCl, 0.5% Triton-X-100, 20% glycerol, protease inhibitor and 15 μg/ml RNAse A followed by clearing at 13 000 g (10 min). For DMDA-PatA treated samples, lysis and wash buffers also contained 100 nM DMDA-PatA. Anti-Flag antibody was incubated overnight at 4° C., followed by addition of Protein G beads for 4 h. Beads were washed 3× with 500 μl buffer, boiled in SDS-PAGE loading buffer followed by SDS-PAGE and immunoblotting. m^7GTP-Sepharose was performed as described (Yoder-Hill et al., 1993) with modifications. 30 μl RRL was incubated with DMSO or DMDA-PatA at room temperature for 30 min, diluted with buffer supplemented with DMSO or DMDA-PatA (20 nM), then combined with 50 μl beads for 3 h at 4° C. followed by 4 washes with 1 ml buffer. […]"}, "[1]": {"tested_on": "IL-2 promoter luciferase reporter in stimulated Jurkat T cells", "test": "IL-2 reporter gene assay (transfected Jurkat cells)", "type": "cell-based", "protocol": "The ability of these derivatives to inhibit T cell receptor-mediated IL-2 production was analyzed using an IL-2 reporter gene assay. In this assay, a plasmid encoding a reporter gene (luciferase) under the control of the IL-2 promoter was first introduced into Jurkat T cells by transfection. The transfected Jurkat T cells are then stimulated with two pharmacological agents, phorbol myristyl acetate (PMA), which activates protein kinase C, and inonmycin, which allows calcium ion to enter T cells to activate calmodulin and calcineurin. Together, PMA and ionomycin recapitulate T cell receptor signaling, leading to the activation of the luciferase reporter gene by activating the IL-2 promoter. The ability of PatA and its analogs to block T cell receptor-mediated IL-2 expression was measured by their effects on this reporter gene assay. Su, B., et a., Cell 1994, 77, 727-736."}, "cancer cell lines": {"tested_on": "cancer cell lines", "test": "cell proliferation assay ([3H]-thymidine incorporation), cancer cell lines", "type": "cell-based", "protocol": "Cell Proliferation Assay. 1×10^5 of indicated cells in each well of a 96-well plate were treated with indicated compounds for 24 h followed by addition of 0.11 μCi of [^3H]-thymidine (6.7 Ci/mmol) per well for 6 h, followed by harvesting to GF/C filtermats using a cell harvester. Filtermats were air-dried and scintillation counted. IC50s were determined from quadruplicate data readings and curve-fitting analysis."}, "eIF4A": {"biological_target": "T2, eIF4A (Homo sapiens, UniProt P60842)", "T2 construct": "Cell lysates from RKO cells were prepared as previously described; endogenous in cells; host or cells: RKO cell lysate", "T2 sequence (P60842 2-406)": "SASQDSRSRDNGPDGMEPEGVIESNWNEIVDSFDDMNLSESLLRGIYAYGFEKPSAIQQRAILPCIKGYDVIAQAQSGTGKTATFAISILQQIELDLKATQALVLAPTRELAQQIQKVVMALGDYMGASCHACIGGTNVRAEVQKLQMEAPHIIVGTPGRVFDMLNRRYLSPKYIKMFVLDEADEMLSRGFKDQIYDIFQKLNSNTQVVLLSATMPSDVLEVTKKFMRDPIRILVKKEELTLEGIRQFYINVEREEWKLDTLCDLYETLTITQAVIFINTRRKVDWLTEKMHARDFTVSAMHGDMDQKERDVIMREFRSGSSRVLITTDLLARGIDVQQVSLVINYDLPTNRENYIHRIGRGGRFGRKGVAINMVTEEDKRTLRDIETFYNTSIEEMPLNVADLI", "test": "B-PatA streptavidin pull-down competition", "type": "binding", "settings": "RKO cell lysate, pre-incubation with competitor", "protocol": "Streptavidin-agarose Pulldown with B-PatA. Cell lysates from RKO cells were prepared as previously described (Griffith et al., 1997). HeLa lysates were prepared in buffer: 10 mM HEPES-OH, pH 7.6, 10 mM KC2H3O2, and 0.5 mM MgC2H3O2. RRL and WGE were diluted about 12 fold using HeLa lysate buffer. All pulldowns included protease inhibitors. Streptavidin-beads were pre-incubated with 10 mg/ml BSA in buffer for 1 h at 4° C. with mixing. Equal aliquots of lysate (200 μl) were incubated with DMSO or PatA analog for 1 h at 4° C. with mixing, followed by addition of DMSO or B-PatA and incubation for 2 h. Each sample was combined with equal amounts of pre-blocked beads and incubated for 1 h at 4° C. Beads were washed with 3 ml of buffer, boiled in SDS-PAGE loading buffer and analyzed by SDS-PAGE and silver-staining or immunoblotting."}, "[2]": {"tested_on": "RNA synthesis in HeLa S3 cells", "test": "metabolic labelling, RNA synthesis ([3H]-uridine)", "type": "cell-based", "protocol": "(§1) Metabolic Labelling. About 5000 HeLa S3 cells per well in 96-well plates were cultured overnight in duplicate. One set of plates were washed twice with, then incubated for 20 min in Met and Cys free medium, then exchanged for labeling medium (RPMI 1640 with 10% FBS dialyzed in PBS overnight, and 0.15 mCi/ml [^35S]-Met and [^35S]-Cys) with indicated compounds and final volume of 100 μl per well. After 1 h or 3 h incubation, and two washes with ice-cold PBS, cells were lysed in RIPA buffer, under agitation for 30 min at 4° C. 5 μl of lysate from each well was combined with 25 μl of 1 mg/ml BSA, and added to 96 well plates, followed by addition of 150 μl of 5% TCA in ethanol and incubated at 4° C. for 30 min. Filtration was performed on a vacuum manifold as per manufacturer's instructions with 2 washes of 5% TCA in ethanol, then twice with 100% ethanol. After air-drying, scintillation counting was performed. For the second set, replacement media contained […] [^3H]-uridine and indicated compound, and incubated for 1 or 3 h. Remaining procedure was identical to cell proliferation assay."}, "[3]": {"tested_on": "protein synthesis in HeLa S3 cells", "test": "metabolic labelling, protein synthesis ([35S]-methionine/cysteine)", "type": "cell-based", "protocol": "as §1"}, "stability in CDCl3": {"test": "stability in CDCl3", "type": "physicochemical", "settings": "CDCl3, 25° C."}}, "note": "Where two headings read alike, the source gives them in different places."}
{"smiles": "CC(/C=C/C(C)=C/[C@@H]1Cc2nc(cs2)[C@@H](C)C[C@@H](N)CC(=O)O[C@@H](C)C/C(C)=C/C=C\\C(=O)O1)=C\\CN(C)C", "note": "[Pat A (1), Pateamine A]", "values": [{"measurement": "effect on eIF4A-eIF4B interaction", "setting": "eIF4A-eIF4B", "value": "increase in amount of eIF4B observed"}, {"measurement": "IC50", "setting": "[1]; stimulated Jurkat T cells, listed as native pateamine A, read-out: IC50, inhibition of IL-2 production / IL-2 reporter gene", "value": "4.01 ± 0.94", "unit": "nM"}, {"measurement": "IC50", "setting": "[1]; stimulated Jurkat T cells, read-out: IC50, inhibition of IL-2 production / IL-2 reporter gene", "value": "4 ± 0.9", "unit": "nM"}, {"measurement": "IC50", "setting": "cancer cell lines; all cancer cell lines (FIG. 12), read-out: IC50, inhibition of proliferation", "value": "< 1", "unit": "nM"}, {"measurement": "competition with B-PatA for eIF4A binding", "setting": "eIF4A", "value": "effectively competed away"}, {"measurement": "effect on RNA synthesis", "setting": "[2]", "value": "inhibitory effect on RNA synthesis"}, {"measurement": "IC50", "setting": "[3]; 1 h treatment, read-out: IC50, inhibition of protein synthesis", "value": 3.3, "unit": "nM"}, {"measurement": "decomposes in CDCl3", "setting": "stability in CDCl3", "value": "< 10", "unit": "min"}]}
{"smiles": "CC(/C=C/C(C)=C/[C@@H]1Cc2nc(cs2)CCCCC(=O)O[C@@H](C)C/C(C)=C/C=C\\C(=O)O1)=C\\CN(C)C", "note": "[compound 3, desmethyl, desamino-pateamine A]", "values": [{"measurement": "effect on eIF4A-eIF4B interaction", "setting": "eIF4A-eIF4B", "value": "enhancement of eIF4A-eIF4B interaction"}, {"measurement": "IC50", "setting": "[1]; stimulated Jurkat T cells, listed as DMDA PatA 3, read-out: IC50, inhibition of IL-2 production / IL-2 reporter gene", "value": "0.8 ± 0.3", "unit": "nM"}, {"measurement": "IC50", "setting": "[1]; stimulated Jurkat T cells, listed as DMDA PatA, read-out: IC50, inhibition of IL-2 production / IL-2 reporter gene", "value": "0.81 ± 0.27", "unit": "nM"}, {"measurement": "IC50", "setting": "[1]; transfected Jurkat cells, same population of Jurkat T cells, read-out: IC50", "value": 0.808, "unit": "nM"}, {"measurement": "activity in cell proliferation assays", "setting": "cancer cell lines", "value": "retain most of the activity of PatA"}, {"measurement": "competition with B-PatA for eIF4A binding", "setting": "eIF4A", "value": "competitive"}, {"measurement": "effect on RNA synthesis", "setting": "[2]", "value": "secondary effect on RNA synthesis"}, {"measurement": "effect on protein synthesis", "setting": "[3]", "value": "inhibited protein synthesis"}, {"measurement": "stable in CDCl3", "setting": "stability in CDCl3", "value": "3-4 weeks"}]}
